From ChEMBL document CHEMBL1201862, “PubChem BioAssay data set” (2004)
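Values below derive from 48-hour exposures of cells grown in 96-well plates, with endpoints linearly interpolated between the two concentrations bracketing the appropriate inhibition level. GI50: concentration for 50% inhibition of growth.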 Activity calls are given as the source filed them. Cut-off read from the data, not from the text of the source: active = GI50 up to about 1.1 µM and inactive = higher.

Assays:
Assay in all cases: inhibition of tumour cell growth, NCI panel, 48 h
[1] = test system: ACHN
[2] = test system: DU-145
[3] = test system: HCT-116
[4] = test system: HCT-15
[5] = test system: HT-29
[6] = test system: KM12
[7] = test system: MCF7
[8] = test system: MOLT-4
[9] = test system: NCI-H226
[10] = test system: NCI-H522
[11] = test system: OVCAR-8
[12] = test system: RPMI-8226
[13] = test system: RXF 393
[14] = test system: SF-539
[15] = test system: SK-OV-3
[16] = test system: SR
[17] = test system: U-251
[18] = test system: UACC-257
[19] = test system: TK-10

Row | SMILES | GI50 [1] | GI50 [2] | GI50 [3] | GI50 [4] | GI50 [5] | GI50 [6] | GI50 [7] | GI50 [8] | GI50 [9] | GI50 [10] | GI50 [11] | GI50 [12] | GI50 [13] | GI50 [14] | GI50 [15] | GI50 [16] | GI50 [17] | GI50 [18] | GI50 [19]
1 | CC(C)c1nc2c(Cl)c3ncccc3cc2[nH]c1=O | 44 µM (inactive) | > 100 µM (inactive) | > 100 µM (inactive) | 74 µM | > 100 µM (inactive) | 80.4 µM (inactive) | > 100 µM (inactive) | 29.6 µM (inactive) | 65.9 µM (inactive) | 16.7 µM (inactive) | 29.2 µM (inactive) | > 100 µM (inactive) | > 100 µM (inactive) | > 100 µM (inactive) | > 100 µM (inactive) | > 100 µM (inactive) | 73.3 µM (inactive) | > 100 µM (inactive) | 
2 | c1csc(-c2cc(-c3ccsc3)c(-c3cccs3)s2)c1 | 99.5 µM (inactive) | > 100 µM (inactive) | 29.8 µM (inactive) | 44.1 µM | 43.6 µM (inactive) | 31.8 µM (inactive) | 6.75 µM (inactive) | 30.1 µM (inactive) | > 100 µM (inactive) | 61.7 µM (inactive) | > 100 µM (inactive) |  | 49.8 µM (inactive) | > 100 µM (inactive) |  | 36.9 µM (inactive) | 81.3 µM (inactive) | 56.2 µM (inactive) | > 100 µM (inactive)
3 | ClC1=NSSC1(Cl)Cl | 20.4 µM (inactive) | > 100 µM (inactive) | 30.6 µM (inactive) | 18.4 µM | 30.5 µM (inactive) | 71.1 µM (inactive) | 32.3 µM (inactive) | 14.8 µM (inactive) | > 100 µM (inactive) | 7.6 µM (inactive) | 24.4 µM (inactive) | 23.5 µM (inactive) | 46.1 µM (inactive) | 40.5 µM (inactive) |  | 21 µM (inactive) | 56.6 µM (inactive) | 51.8 µM (inactive) | 
4 | CC(=O)CN/C(C)=N/Nc1ccc([N+](=O)[O-])cc1[N+](=O)[O-] | 94.4 µM (inactive) | > 100 µM (inactive) | > 100 µM (inactive) | > 100 µM | > 100 µM (inactive) |  | > 100 µM (inactive) | > 100 µM (inactive) | > 100 µM (inactive) | > 100 µM (inactive) | > 100 µM (inactive) | > 100 µM (inactive) | > 100 µM (inactive) | > 100 µM (inactive) | > 100 µM (inactive) | > 100 µM (inactive) | > 100 µM (inactive) |  | 
5 | O=Cc1cn(CCCCCCCCCCCCn2cc(C=O)c3ccccc32)c2ccccc12 | 4.88 µM (inactive) | > 100 µM (inactive) | 2.25 µM (inactive) | > 100 µM | > 100 µM (inactive) |  | 2.62 µM (inactive) | > 100 µM (inactive) | 57.3 µM (inactive) | 38.3 µM (inactive) | > 100 µM (inactive) |  | > 100 µM (inactive) | > 100 µM (inactive) | > 100 µM (inactive) | 11.7 µM (inactive) | > 100 µM (inactive) | 2.47 µM (inactive) | > 100 µM (inactive)
6 | O=C1CSC(c2cc3cc(Br)ccc3nc2Cl)N1c1ccc(F)c(Cl)c1 (stereo not drawn) | > 50 µM (inactive) | > 50 µM (inactive) | > 50 µM (inactive) | 33 µM | > 50 µM (inactive) | 35.6 µM (inactive) | 18.9 µM (inactive) | 11.1 µM (inactive) | 43.5 µM (inactive) | 33.1 µM (inactive) | > 50 µM (inactive) | 18.1 µM (inactive) | > 50 µM (inactive) | 17.3 µM (inactive) | > 50 µM (inactive) | 12.7 µM (inactive) |  | > 50 µM (inactive) | > 50 µM (inactive)
7 | COc1cc2[nH]c(=O)[nH]c2c2c(C)c[nH]c12 | > 100 µM (inactive) | > 100 µM (inactive) | > 100 µM (inactive) | > 100 µM | > 100 µM (inactive) | > 100 µM (inactive) | > 100 µM (inactive) | > 100 µM (inactive) | > 100 µM (inactive) | > 100 µM (inactive) | > 100 µM (inactive) | > 100 µM (inactive) | > 100 µM (inactive) |  | > 100 µM (inactive) | > 100 µM (inactive) | > 100 µM (inactive) | > 100 µM (inactive) | > 100 µM (inactive)
8 | Clc1ccc(-c2cc(-c3cc4cc(Br)ccc4nc3Cl)on2)cc1 | 13.8 µM (inactive) | 18.8 µM (inactive) | 12.2 µM (inactive) | 16.2 µM | 17.5 µM (inactive) | 15.5 µM (inactive) | 13.1 µM (inactive) | 14.1 µM (inactive) | 13.3 µM (inactive) | 10.2 µM (inactive) | 18.7 µM (inactive) | 15.4 µM (inactive) | 15.4 µM (inactive) | 9.08 µM (inactive) | 18.9 µM (inactive) | 10.4 µM (inactive) |  | 13 µM (inactive) | 
